{"source": "patent US6569864B1", "about": "“Pharmaceutical agents containing acyclovir, fusaric acid and derivatives thereof” (Novactyl, Inc., priority 2001, dated 2003)", "key": {"HSV-1": {"test_system": "HSV-1", "test": "plaque reduction assay, HSV-1 in Vero cells", "type": "cell-based", "details": "for cell death observed under microscope: HSV-1 infected Vero cells", "procedure": "(§1) Herpes simplex virus standard strains G (HSV-2) and F (HSV-1) were used in each Example. Virus input for a 6-well plate was 200 pfu/well. HSV susceptible cell line, Vero cells, were used in the virus yield reduction assay. The culture medium for Vero cells is 5% Minimum Essential Medium GIBCO/BRL (MEM) supplemented with 5% fetal bovine serum (200 U/ml penicillin and 200 μg/ml streptomycin).\n(§2) To examine the efficacy of fusaric acid on HSV-1 and HSV-2, the susceptible cells were infected with either HSV-1 or HSV-2, then incubated with fusaric acid at concentrations of 0, 1, 10, 30, 60, and 100 μg/ml. The antiviral effect was then determined by plaque reduction assay.\n(§3) Confluent cells were washed with PBS and infected with either HSV-1 or HSV-2 (200 pfu/well) for 1 hour at 37° C. The cells were tilled every 20 minutes. After viral inoculum was removed, infected cells were washed with PBS and overlaid with 0.5% methylcellulose in culture medium (equal volume of 1% methylcellulose mixed with 2 times culture medium) containing different doses of testing compounds. The cells were incubated at 37° C. for 2 days for HSV-2 infection and 3 days for HSV-1.\n(§4) After plaque size was adequate, the cells were fixed with 20% formalin for 20 minutes and stained with 0.5% crystal violet for 20 minutes. The dye was removed by washing with tap water and left to dry in a fume hood. The plaques were then counted. The experiment was repeated.\n(§5) Mean plaque counts in test wells were compared with mean plaque counts in wells not containing the compound (control wells). The antiviral effects of fusaric acid on HSV-1 and HSV-2 are summarized in Table 1 and the antiviral effect of fusaric acid on HSV as determined by plaque reduction assay is shown in FIG. 1.\n(§6) EC90-100 (effective concentration giving 90-100% plaque reduction) was approximately 30 μg/ml for both HSV-1 and HSV-2. Control was calculated as the mean plaque count in the drug treated wells divided by the mean plaque count in the control wells. The concentrations giving a 50% reduction in the plaque count of the inoculum (EC50) was then calculated using computer software.\n(§7) To examine the efficacy of the combination of fusaric acid and acyclovir on HSV-1 and HSV-2, the plaque reduction assay technique described in Example 1 was employed. The susceptible cells were infected with HSV-1 then incubated with a combination of fusaric acid at concentrations of 0, 1, 10, 30 and 60 μg/ml and […] acyclovir. Similarly, other susceptible cells were infected with HSV-2 then incubated with a combination of […] at concentrations of 0, 1, 10, 30, and 60 μg/ml and 6.1 μM acyclovir. A control was used in each instance, which comprised neither picolinic acid nor acyclovir."}, "HSV-2": {"test_system": "HSV-2", "test": "plaque reduction assay, HSV-2 in Vero cells", "type": "cell-based", "details": "for cell death observed under microscope: HSV-2 infected Vero cells", "procedure": "as §1, §2, §3, §4, §5, §6, §7"}, "herpes labialis": {"test_system": "herpes labialis", "details": "cited from earlier work"}, "[1]": {"test": "cytotoxicity by neutral red dye uptake assay", "type": "cell-based", "details": "African green monkey", "procedure": "(§8) The cytotoxic effects of picolinic acid and fusaric acid were examined on Vero cells using neutral red dye uptake assay. Confluent Vero cells were cultured in a medium containing various doses of picolinic acid for two days. The testing concentrations were 0, 10, 100, 250, 500 and 1000 μg/ml for picolinic acid and 0, 1, 10, 50, 100 and 500 μg/ml for fusaric acid. Culture medium was removed from confluent Vero cells in a 96-well plate by pump. The cells were then washed once with 200 μl of PBS. 200 μl culture medium containing varying concentrations of either picolinic acid or fusaric acid was added to each well. The cells were then incubated with […] at 37° C. for two days. At the end of incubation, the medium was removed and the cells washed with PBS. 200 μl of 0.01% neutral red in PBS was subsequently added to each well and incubated at 37° C. for 30 minutes The dye was then removed and the cells washed twice with 200 μl PBS per well. The dye was extracted by addition of 200 μl of 50% ethanol/1% glacial acetic acid in PBS to each well and incubated at room temperature for 15 minutes with gentle shaking at 120-150 rpm. The absorbance at 550 nm was read on an enzyme-linked immunosorbent assay (ELISA) reader. The toxicity profiles of picolinic acid and fusaric acid on Vero cells analyzed from optical absorbance readings are shown in Table 2."}, "Vero cells": {"test_system": "Vero cells", "test": "cytotoxicity by neutral red dye uptake assay", "type": "cell-based", "procedure": "as §8"}}, "note": "Read-outs that look alike come from different tables or passages of the source.", "data": [{"compound": "Nc1nc2c(ncn2COCCO)c(=O)[nH]1", "note": "[Acyclovir, 2-amino-1,9-dihydro-9-[(2-hydroxyethoxy)metyl]-6H-purin-6-one]", "values": [{"measurement": "HSV-1 (% of control)", "setting": "HSV-1; acyclovir 1.75 μM, fusaric acid 0 μg/ml", "value": "62.9 % of control"}, {"measurement": "HSV-2 (% of control)", "setting": "HSV-2; acyclovir 6.1 μM, fusaric acid 0 μg/ml", "value": "42.9 % of control"}, {"measurement": "efficacy against herpes labialis and herpes genitalis (in words)", "setting": "herpes labialis; topical formulation", "value": "not effective"}]}, {"compound": "Nc1nc2c(ncn2CCC(CO)CO)c(=O)[nH]1", "note": "[denavir]", "values": [{"measurement": "reduction of the median duration of the illness", "setting": "herpes labialis; herpes labialis, typically lasting about 6 to 7 days", "value": 6, "unit": "h"}]}, {"compound": "CCCCc1ccc(C(=O)O)nc1", "note": "[Fusaric acid]", "values": [{"measurement": "effect on HSV-1 (in words)", "setting": "HSV-1; 10 μg/ml fusaric acid alone", "value": "no effect"}, {"measurement": "EC90", "setting": "HSV-1; Human alphaherpesvirus 1, Vero, read-out: EC90-100 (effective concentration giving 90-100% plaque reduction)", "value": "~30", "unit": "µg/mL"}, {"measurement": "HSV-1 plaque count (% of control)", "setting": "HSV-1; fusaric acid 1 μg/ml", "value": "101 % of control"}, {"measurement": "HSV-1 plaque count (% of control)", "setting": "HSV-1; fusaric acid 10 μg/ml", "value": "105 % of control"}, {"measurement": "HSV-1 plaque count (% of control)", "setting": "HSV-1; fusaric acid 30 μg/ml", "value": "0 % of control"}, {"measurement": "HSV-1 plaque count (% of control)", "setting": "HSV-1; fusaric acid 60 μg/ml", "value": "0 % of control"}, {"measurement": "cell death observed under microscope", "setting": "HSV-1; fusaric acid 60 μg/ml", "value": "+ (˜20% cell death observed under microscope)"}, {"measurement": "HSV-1 plaque count (% of control)", "setting": "HSV-1; fusaric acid 100 μg/ml", "value": "0 % of control"}, {"measurement": "cell death observed under microscope", "setting": "HSV-1; fusaric acid 100 μg/ml", "value": "++ (˜50% cell death observed under microscope)"}, {"measurement": "effect on HSV-2 (in words)", "setting": "HSV-2; 10 μg/ml fusaric acid alone", "value": "no effect"}, {"measurement": "EC90", "setting": "HSV-2; Human alphaherpesvirus 2, Vero, read-out: EC90-100 (effective concentration giving 90-100% plaque reduction)", "value": "~30", "unit": "µg/mL"}, {"measurement": "HSV-2 plaque count (% of control)", "setting": "HSV-2; fusaric acid 1 μg/ml", "value": "103 % of control"}, {"measurement": "HSV-2 plaque count (% of control)", "setting": "HSV-2; fusaric acid 10 μg/ml", "value": "101 % of control"}, {"measurement": "HSV-2 plaque count (% of control)", "setting": "HSV-2; fusaric acid 30 μg/ml", "value": "0 % of control"}, {"measurement": "HSV-2 plaque count (% of control)", "setting": "HSV-2; fusaric acid 60 μg/ml", "value": "0 % of control"}, {"measurement": "cell death observed under microscope", "setting": "HSV-2; fusaric acid 60 μg/ml", "value": "+ (˜20% cell death observed under microscope)"}, {"measurement": "HSV-2 plaque count (% of control)", "setting": "HSV-2; fusaric acid 100 μg/ml", "value": "0 % of control"}, {"measurement": "cell death observed under microscope", "setting": "HSV-2; fusaric acid 100 μg/ml", "value": "++ (˜50% cell death observed under microscope)"}, {"measurement": "CC50 at 2 days", "setting": "[1]; Vero cells, read-out: cytotoxic concentration giving 50% of cell death (CC50)", "value": "~100", "unit": "µg/mL"}, {"measurement": "Toxicity (% of control)", "setting": "Vero cells; 1 μg/ml, Vero cells, two days", "value": "101 % of control"}, {"measurement": "Toxicity (% of control)", "setting": "Vero cells; 10 μg/ml, Vero cells, two days", "value": "76 % of control"}, {"measurement": "Toxicity (% of control)", "setting": "Vero cells; 50 μg/ml, Vero cells, two days", "value": "55 % of control"}, {"measurement": "Toxicity (% of control)", "setting": "Vero cells; 100 μg/ml, Vero cells, two days", "value": "49 % of control"}, {"measurement": "Toxicity (% of control)", "setting": "Vero cells; 500 μg/ml, Vero cells, two days", "value": "16 % of control"}]}, {"compound": "O=C(O)c1ccccn1", "note": "[Picolinic acid, reference compound]", "values": [{"measurement": "CC50 at 2 days", "setting": "[1]", "value": "~800", "unit": "µg/mL"}, {"measurement": "Toxicity (% of control)", "setting": "Vero cells; African green monkey, 2 days, 10 μg/ml", "value": "105 % of control"}, {"measurement": "Toxicity (% of control)", "setting": "Vero cells; African green monkey, 2 days, 100 μg/ml", "value": "95 % of control"}, {"measurement": "Toxicity (% of control)", "setting": "Vero cells; African green monkey, 2 days, 250 μg/ml", "value": "70 % of control"}, {"measurement": "Toxicity (% of control)", "setting": "Vero cells; African green monkey, 2 days, 500 μg/ml", "value": "57 % of control"}, {"measurement": "Toxicity (% of control)", "setting": "Vero cells; African green monkey, 2 days, 1000 μg/ml", "value": "45 % of control"}]}]}
